Tests used:
[1] = test system: LCLC-103H xenograft tumors; assay: Therapeutic LCLC-103H xenograft model; assay type: in vivo, SCID mice
Protocol: 5×10^6 LCLC-103H (large cell lung carcinoma) tumor cells (obtained from Leibniz-Institut DSMZ-Deutsche Sammlung von Mikroorganismen and Zellkulturen GmbH (DSMZ)) in 200 μL PBS were injected subcutaneously in the right flank of female SCID mice. Starting 14-21 days after tumor cell inoculation, when the average tumor size was >100-200 mm^3 and distinct tumor growth was observed, a single injection with 1 mg/kg (20 μg/mouse) IgG1-AXL-vcMMAE antibodies (as described in Supplementary Example 1) or control (unconjugated IgG1-b12) was given intraperitoneally (100 μL/mouse). Tumor volume was determined at least two times per week. Tumor volumes (mm^3) were calculated from caliper (PLEXX) measurements as: 0.52×(length)×(width)^2.
Tumor induction was performed by subcutaneous injection of 5×10^6 A431 or LCLC-103H tumor cells (both obtained from Leibniz-Institut—Deutsche Sammlung von Mikroorganismen and Zellkulturen GmbH (DSMZ)) in 200 μL PBS in the right flank of female SCID mice. Treatment was started 14-21 days after tumor cell inoculation, when the average tumor size was >100-200 mm^3 and distinct tumor growth was observed. Mice received a single injection or a total of 4 biweekly intraperitoneal injections with IgG1-AXL-vcMMAE ADCs or control antibody (unconjugated IgG1-b12), as indicated. Tumor volume was determined at least two times per week. Tumor volumes (mm^3) were calculated from caliper (PLEXX) measurements as: 0.52×(length)×(width)2.

SKMEL147 tumors = assay: SKMEL147 melanoma xenograft model; assay type: in vivo, NMRI nude mice

Substance: IgG1-AXL-107-vcMMAE: IgG1-AXL-107 conjugated at cysteines to vcMMAE (mc-vc-PAB linker, MMAE)
- anti-tumor activity ([1]; Example 9: single injection 1 mg/kg intraperitoneally): induced tumor regression
- anti-tumor activity ([1]; Example 13: 1 mg/kg intraperitoneally): induced regression
- anti-tumor activity (SKMEL147 tumors; 2 mg/kg i.v. on day 12 and day 19 after tumor cell injection): induced tumor growth inhibition
- anti-tumor activity (SKMEL147 tumors; 4 mg/kg i.v. on day 12 and day 19 after tumor cell injection): induced strong tumor regression
- anti-tumor activity (SKMEL147 tumors; 4 mg/kg i.v. on day 12 and day 19 after tumor cell injection, listed as HuMax-AXL-ADC): profound anti-tumor effect
- anti-tumor activity upon retreatment after regrowth (SKMEL147 tumors; single dose of 4 mg/kg on day 55, four mice): tumor regression in all four mice

From patent US20200397913A1, “AXL-SPECIFIC ANTIBODY-DRUG CONJUGATES FOR CANCER TREATMENT” (GENMAB A/S, priority 2015, published 2020)
